The text below walks through data of ChEMBL document CHEMBL2203224, “Diversity of polyphenol action in Caenorhabditis elegans: between toxicity and longevity” (J Nat Prod, 2011).

Activity calls are given as the source filed them. No cut-off for these calls is given here.

The test system of data set [1] is Caenorhabditis elegans. Put plainly: Toxicity in L4 larvae of Caenorhabditis elegans at 800 uM after 8 hrs. In kind it is organism-based. Conditions: in vivo.
For data set [2], the system named is Caenorhabditis elegans. Put plainly: Increase of lifespan of Caenorhabditis elegans assessed as trolox equivalent of lipid soluble antioxidant metabolites at 200 uM by photochemiluminescence assay. The data set is classed as functional, organism-based.
Data set [3] deals with Caenorhabditis elegans. Put plainly: Increase of lifespan of L4 larvae of Caenorhabditis elegans after 8 hrs. In kind it is functional, organism-based.
Data set [4] relates to Caenorhabditis elegans. Put plainly: Increase of lifespan of L4 larvae of Caenorhabditis elegans assessed as lifespan increasing concentration after 8 hrs. In kind it is functional.
Data set [5] relates to Caenorhabditis elegans. Put plainly: Increase of lifespan of L4 larvae of Caenorhabditis elegans after 8 hrs in presence of H2O2. In kind it is functional, organism-based.
Data set [6] has as its system Caenorhabditis elegans. Put plainly: Reduction of body length of L4 larvae of Caenorhabditis elegans at 200 uM by microscopic analysis. In kind it is functional, organism-based.
Data set [7] relates to Caenorhabditis elegans. Put plainly: Increase of frequency of pharyngeal pumping in Caenorhabditis elegans at 200 uM on 3rd to 9th day of adulthood. In kind it is functional, organism-based.
Data set [8] has as its system Caenorhabditis elegans. Put plainly: Increase of lifespan of Caenorhabditis elegans assessed as ascorbic acid equivalent of water soluble antioxidant metabolites at 200 uM by photochemiluminescence assay. The data set is classed as functional, organism-based.
For data set [9], the system named is Caenorhabditis elegans. Put plainly: Reduction of frequency of pharyngeal pumping in Caenorhabditis elegans at 200 uM on 3rd to 9th day of adulthood. In kind it is functional, organism-based.
The subject of data set [10] is Caenorhabditis elegans. Put plainly: Increase of lifespan of L4 larvae of Caenorhabditis elegans at 35 degC after 8 hrs. The data set is classed as functional, organism-based.
In data set [11] the test system is Caenorhabditis elegans. As to the kind of experiment: Reduction of initial reproduction rate in Caenorhabditis elegans assessed as first egg deposition at 200 uM after 85 hrs. In kind it is functional, organism-based.
Data set [12] concerns Caenorhabditis elegans. Put plainly: Increase of median lifespan of L4 larvae of Caenorhabditis elegans harboring eat-2 (ad465) at 300 uM after 8 hrs. The data set is classed as functional.
The subject of data set [13] is Caenorhabditis elegans. Put plainly: Increase of frequency of pharyngeal pumping in Caenorhabditis elegans at 300 uM on 9th day of adulthood. In kind it is functional, organism-based.
Data set [14] relates to Caenorhabditis elegans. Put plainly: Increase of lifespan of L4 larvae of Caenorhabditis elegans at 300 uM after 8 hrs in presence of H2O2. The data set is classed as functional, organism-based.
Data set [15] relates to Caenorhabditis elegans. Put plainly: Reduction of frequency of pharyngeal pumping in Caenorhabditis elegans at 300 uM on 3rd to 9th day of adulthood. The data set is classed as functional, organism-based.
The subject of data set [16] is Caenorhabditis elegans. Put plainly: […] assessed as ascorbic acid equivalent of water soluble antioxidant metabolites at 300 uM by photochemiluminescence assay. The data set is classed as functional, organism-based.
Data set [17] concerns Caenorhabditis elegans. Put plainly: Increase of lifespan of L4 larvae of Caenorhabditis elegans at 300 uM in presence of heat killed bacteria. The data set is classed as functional, organism-based.
Data set [18] concerns Caenorhabditis elegans. Put plainly: Reduction of initial reproduction rate in Caenorhabditis elegans assessed as first egg deposition at 300 uM after 85 hrs. The data set is classed as functional, organism-based.
The test system of data set [19] is Caenorhabditis elegans. As to the kind of experiment: Increase of mean lifespan of L4 larvae of Caenorhabditis elegans harboring eat-2 (ad465) at 300 uM after 8 hrs. In kind it is functional.
For data set [20], the system named is Caenorhabditis elegans. Put plainly: Increase of body length of L4 larvae of Caenorhabditis elegans at 300 uM by microscopic analysis. The data set is classed as functional, organism-based.
The test system of data set [21] is Caenorhabditis elegans. As to the kind of experiment: […] assessed as trolox equivalent of lipid soluble antioxidant metabolites at 300 uM by photochemiluminescence assay. In kind it is functional, organism-based.
Data set [22] concerns Caenorhabditis elegans. As to the kind of experiment: Increase of lifespan of L4 larvae of Caenorhabditis elegans at 300 uM at 35 degC after 8 hrs. In kind it is functional, organism-based.
For data set [23], the system named is Caenorhabditis elegans. Put plainly: Reduction of initial reproduction rate in Caenorhabditis elegans assessed as first egg deposition at 50 uM after 85 hrs. In kind it is functional, organism-based.
Data set [24] deals with Caenorhabditis elegans. Put plainly: Reduction of body length of L4 larvae of Caenorhabditis elegans at 50 uM by microscopic analysis. The data set is classed as functional, organism-based.
Data set [25] relates to Caenorhabditis elegans. As to the kind of experiment: Increase of lifespan of L4 larvae of Caenorhabditis elegans at 50 uM in presence of heat killed bacteria. The data set is classed as functional, organism-based.
In data set [26] the test system is Caenorhabditis elegans. As to the kind of experiment: […] assessed as ascorbic acid equivalent of water soluble antioxidant metabolites at 50 uM by photochemiluminescence assay. In kind it is functional, organism-based.
Data set [27] deals with Caenorhabditis elegans. As to the kind of experiment: Reduction of frequency of pharyngeal pumping in Caenorhabditis elegans at 50 uM on 3rd to 9th day of adulthood. In kind it is functional, organism-based.
The test system of data set [28] is Caenorhabditis elegans. Put plainly: Reduction of initial reproduction rate in Caenorhabditis elegans assessed as first egg deposition at 100 uM after 85 hrs. The data set is classed as functional, organism-based.
The subject of data set [29] is Caenorhabditis elegans. Put plainly: […] assessed as trolox equivalent of lipid soluble antioxidant metabolites at 100 uM by photochemiluminescence assay. The data set is classed as functional, organism-based.
Data set [30] deals with Caenorhabditis elegans. As to the kind of experiment: Reduction of frequency of pharyngeal pumping in Caenorhabditis elegans at 100 uM on 3rd to 9th day of adulthood. In kind it is functional, organism-based.
Data set [31] has as its system Caenorhabditis elegans. As to the kind of experiment: Increase of mean lifespan of L4 larvae of Caenorhabditis elegans harboring mev-1 (kn1) mutant at 100 uM after 8 hrs. The data set is classed as functional.
The subject of data set [32] is Caenorhabditis elegans. As to the kind of experiment: Increase of mean lifespan of L4 larvae of wild type Caenorhabditis elegans at 100 uM after 8 hrs. In kind it is functional.
Data set [33] concerns Caenorhabditis elegans. Put plainly: Reduction of triglyceride level in Caenorhabditis elegans at 100 uM. The data set is classed as functional, organism-based.
Data set [34] relates to Caenorhabditis elegans. As to the kind of experiment: […] assessed as ascorbic acid equivalent of water soluble antioxidant metabolites at 100 uM by photochemiluminescence assay. The data set is classed as functional, organism-based.
Data set [35] deals with Caenorhabditis elegans. Put plainly: Reduction of body length of L4 larvae of Caenorhabditis elegans at 100 uM by microscopic analysis. In kind it is functional, organism-based.

`Oc1cc(O)c2c(c1)O[C@H](c1ccc(O)c(O)c1)[C@@H](O)C2` [CATECHIN]: the Activity result in the data set on Caenorhabditis elegans [1] is given as “Non-toxic”.
As for `Oc1cc(O)c2c(c1)OC(c1ccc(O)c(O)c1)C(O)C2` (stereo not drawn) [CATECHIN], the result in the data set on Caenorhabditis elegans [2], in the data set with Caenorhabditis elegans [8], in the data set with Caenorhabditis elegans [9] and in the data set with Caenorhabditis elegans [11] was inactive. The outcome in the data set on Caenorhabditis elegans [3], with Caenorhabditis elegans [5], in the data set with Caenorhabditis elegans [6], with Caenorhabditis elegans [7] and with Caenorhabditis elegans [10] was Active. In addition, in the data set on Caenorhabditis elegans [4], the Activity is 200 µM.
Regarding `O=C(O)c1cc(O)c(O)c(O)c1` [GALLIC ACID], the Activity with Caenorhabditis elegans [12] is 11%; in the data set with Caenorhabditis elegans [4] it was 300 µM; with Caenorhabditis elegans [1], “Non-toxic”; in the data set with Caenorhabditis elegans [19] it was 7%. The outcome with Caenorhabditis elegans [13], in the data set on Caenorhabditis elegans [3], in the data set on Caenorhabditis elegans [5], in the data set with Caenorhabditis elegans [17], with Caenorhabditis elegans [18] and in the data set on Caenorhabditis elegans [20] was Active. Besides, the outcome in the data set with Caenorhabditis elegans [10] was Active. Moreover, the outcome in the data set with Caenorhabditis elegans [14], with Caenorhabditis elegans [15], in the data set with Caenorhabditis elegans [16], with Caenorhabditis elegans [21] and in the data set with Caenorhabditis elegans [22] was inactive.
On to `O=c1oc2c(O)c(O)cc3c(=O)oc4c(O)c(O)cc1c4c23` [ELLAGIC ACID], for which the results for the Activity in the data set with Caenorhabditis elegans [4] and with Caenorhabditis elegans [1] were 50 µM and “Toxic”, respectively. In addition, the result with Caenorhabditis elegans [5] and in the data set on Caenorhabditis elegans [27] was inactive. For the same molecule, the outcome in the data set on Caenorhabditis elegans [23], in the data set on Caenorhabditis elegans [24], in the data set with Caenorhabditis elegans [25] and in the data set with Caenorhabditis elegans [26] was Active.
For `O=C(OC[C@H]1O[C@@H](OC(=O)c2cc(O)c(O)c(OC(=O)c3cc(O)c(O)c(O)c3)c2)[C@H](OC(=O)c2cc(O)c(O)c(OC(=O)c3cc(O)c(O)c(O)c3)c2)[C@@H](OC(=O)c2cc(O)c(O)c(OC(=O)c3cc(O)c(O)c(O)c3)c2)[C@@H]1OC(=O)c1cc(O)c(O)c(OC(=O)c2cc(O)c(O)c(O)c2)c1)c1cc(O)c(O)c(OC(=O)c2cc(O)c(O)c(O)c2)c1` [TANNIC ACID], the outcome with Caenorhabditis elegans [28], in the data set on Caenorhabditis elegans [29], with Caenorhabditis elegans [3], in the data set on Caenorhabditis elegans [33], in the data set with Caenorhabditis elegans [34] and in the data set with Caenorhabditis elegans [35] was Active. The outcome in the data set with Caenorhabditis elegans [10] was Active. Besides, the Activity in the data set on Caenorhabditis elegans [4] is 100 µM; in the data set with Caenorhabditis elegans [31], 3.2%; with Caenorhabditis elegans [1] it was “Toxic”; in the data set on Caenorhabditis elegans [32], 17.6%. Besides, the outcome with Caenorhabditis elegans [30] and with Caenorhabditis elegans [5] was inactive.
